Data on 4 compounds can be found in patent US5208245A, “Dihydropyridine derivative” (Wakunaga Seiyaku Kabushiki Kaisha, priority 1990, dated 1993).

Series [1] relates to spontaneous hypertensive rats. In words: Antihypertensive action in spontaneous hypertensive rats (SHR), oral administration. To be noted: 10 mg/kg orally, (basal - lowest blood pressure)/basal x 100. In kind it is in vivo, rat. The procedure: Test compounds were orally administered to spontaneous hypertensive rats (abbreviated as "SHR" hereinafter) to examine antihypertensive actions thereof.
Two to three days after the operation, the catheter was drawn out from the dorsum cervical part of the rat, and was connected to a blood-pressure measuring device (Polygraph RM-6000 manufactured by Nippon Koden K. K.). Blood pressure and heart rate were measured under the condition without anesthesia and restraint. The test compounds were suspended in 0.5% carboxymethylcellulose for oral administration. To the basal blood pressure obtained by measuring blood pressure over four hours, the lowest blood pressure decreased by the test compounds was used to determine the rate of blood-pressure decrease.
Rate of blood-pressure decrease (%)=(A-B)/A×100
The compound numbers correspond to those indicated in Examples.

For series [2], the system named is longitudinal muscle of guinea pig ileum. Description: Calcium antagonism: inhibition of KCl-induced contraction of ileum longitudinal muscle. Conditions: Cavia porcellus, 1 h; 10^-8 M; 60 min after addition; 80 mM KCl contraction = 100%; 37° C.; read-out: Inhibition rate. The method, then: A guinea pig having a body weight ranging from 350 g to 400 g was exsanguinated to death and laparotomized, to extract ileum. According to the method of Rosenberger et al. (Rosenberger et al., Can. J. Physiol. Pharmacol. 57, 333-347 (1979)), a sample of longitudinal muscle was prepared from the ileum. Then, a mixed gas consisting of 95% oxygen and 5% carbon dioxide was aerated, while the atmosphere was maintained at 37° C. The sample of the longitudinal muscle of the extracted ileum was placed in a magnus tube containing 20 ml of Tyrode solution, and suspended at 0.5 g of tension. As a comparison, 80 mM KCl was administered to contract the longitudinal muscle. Subsequently, 60 min after the addition of each of the test compounds (10^-8 M), the contraction with KCl was again induced. The level of the contraction obtained by the administration of 80 mM KCl was assigned to 100%, and the inhibition rate thereto was determined.

Series [3] can be described thus: Acute toxicity test, intravenous, mice. Conditions: mouse, in vivo, male ddY mice, observed two weeks. The procedure: Male ddY mice (5-7 weeks old) were divided into groups each consisting of 4 mice. The test compounds were dissolved in physiological saline containing 50% polyethylene glycol 400, which was then administered intravenously to the mice, and they were put under observation over two weeks. The analysis was done following the Van der Worden method.

Structures are written as SMILES.

For `COC(=O)C1=C(C)NC(C)=C(C(=O)OC)C1c1ccccc1[N+](=O)[O-]` [Nifedipine, reference compound], the “Rate of blood pressure decrease” value in series [1] worked out at 24.3%. Besides, in series [2], the inhibition at 0.01 µM worked out at 98%.
For `CCOC(=O)C1=C(C)NC(C)=C(C(=O)OC2CC(C)(C)Oc3ccccc32)C1c1cccc(Cl)c1Cl` (stereo not drawn) [Compound 27, 3-(3,4-dihydro-2,2-dimethyl-2H-benzo[b]pyran-4-yl)5-ethyl 1,4-dihydro-2,6-dimethyl-4-(2,3-dichlorophenyl)pyridine-3,5-dicarboxylate] the same measures were 36.9% and 42%.
As for `COC(=O)C1=C(C)NC(C)=C(C(=O)OC2CCOc3ccccc32)C1c1cccc(Cl)c1Cl` (stereo not drawn) [Compound 3], in series [1], the “Rate of blood pressure decrease” value is recorded as 35.1%. Also, the inhibition at 0.01 µM in series [2] is 81%.
In the case of `COC(=O)C1=C(C)NC(C)=C(C(=O)OC2CC(C)(C)Oc3ccccc32)C1c1cccc(Cl)c1Cl` (stereo not drawn) [Compound 21, 3-(3,4-dihydro-2,2-dimethyl-2H-benzo[b]pyran-4-yl)5-methtyl 1,4-dihydro-2,6-dimethyl-4-(2,3-dichorophenyl)pyridine-3,5-dicarboxylate], in series [1], the “Rate of blood pressure decrease” value was determined as 37.3%. Moreover, in series [2], the inhibition at 0.01 µM was found to be 69%. Further, in series [3], the LD50 at 336 h came out at 29.7 mg/kg.
